From patent publication US20210171589A1, “TRUNCATED CARTILAGE-HOMING PEPTIDES AND PEPTIDE COMPLEXES AND METHODS OF USE THEREOF” (BLAZE BIOSCIENCE, INC., priority 2018, published 2021)
Bridge positions count the residues as written; N and C are the ends. Peptide text beside a SMILES is read from it.

What was measured:
porcine pepsin = porcine pepsin (Sus scrofa, UniProt P00791); assay: Peptide resistance to proteolytic digestion by pepsin; type: in vitro ADME; settings: 50 U of porcine pepsin in simulated gastric fluid at pH 1.0, 30 minutes at 37° C.
Sequence of porcine pepsin (P00791 60-385): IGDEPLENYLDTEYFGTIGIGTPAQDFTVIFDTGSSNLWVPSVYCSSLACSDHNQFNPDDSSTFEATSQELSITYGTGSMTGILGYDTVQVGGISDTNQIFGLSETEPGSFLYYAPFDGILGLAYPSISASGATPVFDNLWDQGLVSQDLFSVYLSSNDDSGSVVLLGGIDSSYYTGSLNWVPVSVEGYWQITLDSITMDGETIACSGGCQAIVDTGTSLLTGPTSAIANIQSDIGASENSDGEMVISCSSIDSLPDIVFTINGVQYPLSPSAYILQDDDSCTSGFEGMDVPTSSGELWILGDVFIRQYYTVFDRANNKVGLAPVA
Procedure: (§1) This example illustrates peptide stability under various stress conditions such as high temperature, low pH, reducing agents, and proteases. To determine resistance to high temperatures, cystine-dense peptides (CDPs) were incubated at 0.5 mM in PBS at 75° C. or 100° C. for 1 h and pelleted, and the supernatant was analyzed with reversed-phase chromatography (RPC). To determine resistance to proteolytic digestion, CDPs were mixed with 50 U of porcine pepsin, in simulated gastric fluid at pH 1.0, or 50 U of porcine trypsin in PBS, incubated for 30 minutes at 37° C. and analyzed with RPC. Oxidized and reduced forms (prepared through addition 10 mM DTT) were compared. Circular Dichroism spectroscopy was used in order to measure the secondary structure of peptides with a Jasco J-720W spectropolarimeter in a cell with a 1.0-mm path length, and CDPs were diluted into 20 mM phosphate buffer, pH 7.4, at a concentration of 15-25 μM. These conditions were expected to denature or degrade conventional globular proteins and many peptides. In TABLE 10, “high” resistance indicated a high amount of the peptide remained or was retained as unmodified under the given experimental conditions and “low” resistance indicated a low amount of the peptide remained or was retained unmodified under the given experimental conditions. […]

porcine trypsin = porcine trypsin (Sus scrofa, UniProt P00761); assay: Peptide resistance to proteolytic digestion by trypsin; type: in vitro ADME; settings: 50 U of porcine trypsin in PBS, 30 minutes at 37° C.
Sequence of porcine trypsin (P00761 9-231): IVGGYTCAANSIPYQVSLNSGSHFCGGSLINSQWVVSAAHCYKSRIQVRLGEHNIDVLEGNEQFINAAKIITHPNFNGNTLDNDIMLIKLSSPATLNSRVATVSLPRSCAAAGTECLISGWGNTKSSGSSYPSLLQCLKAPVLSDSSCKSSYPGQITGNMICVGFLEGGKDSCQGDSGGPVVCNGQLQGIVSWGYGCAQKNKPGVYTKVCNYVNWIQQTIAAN
Procedure: as §1

CC[C@H](C)[C@@H]1NC(=O)[C@@H]2CSSC[C@H](NC(=O)[C@H](CCCCN)NC(=O)[C@@H](NC(=O)[C@H](CC(N)=O)NC(=O)[C@@H](NC(=O)[C@@H]3CCCN3C(=O)[C@@H](NC(=O)CNC(=O)[C@H](CO)NC(=O)CN)C(C)C)[C@@H](C)CC)C(C)C)C(=O)N[C@@H](CCCNC(=N)N)C(=O)NCC(=O)N[C@@H](CO)C(=O)N[C@@H](CCCNC(=N)N)C(=O)N[C@@H](CC(=O)O)C(=O)N[C@H]3CSSC[C@H](NC(=O)[C@H](CCCCN)NC(=O)[C@H](CO)NC(=O)[C@H](CC(N)=O)NC1=O)C(=O)N[C@@H](Cc1c[nH]cn1)C(=O)N[C@H](C(=O)N[C@H](C(=O)N1CCC[C@H]1C(=O)O)[C@@H](C)O)CSSC[C@H](NC(=O)[C@@H]1CCCN1C(=O)[C@H](CC(=O)O)NC(=O)[C@H](CC(C)C)NC3=O)C(=O)N[C@@H](CCCCN)C(=O)N[C@@H](CCCCN)C(=O)N[C@@H](C)C(=O)NCC(=O)N[C@@H](CCSC)C(=O)N[C@@H](CCCNC(=N)N)C(=O)N[C@@H](Cc1ccccc1)C(=O)NCC(=O)N[C@@H](CCCCN)C(=O)N2 [compound 150] (H-GSGVPINVKCRGSRDCLDPCKKAGMRFGKCINSKCHCTP-OH; disulfide 10-30, 16-35, 20-37; N-terminus and C-terminus assumed)
Resistance to Pepsin (porcine pepsin): High | Resistance to Trypsin (porcine trypsin): High
